{"source": "patent US20250186379A1", "about": "“METHODS AND AGENTS FOR DECREASING INSULIN RESISTANCE” (Whitehead Institute for Biomedical Research, priority 2021, published 2025)", "key": {"[1]": {"tested_on": "reactive oxygen species (ROS)", "assay": "Quantification of ROS using a ROS-sensitive dye in HepG2 cells", "type": "cell-based, human", "procedure": "Cells expressing endogenous IR tagged with GFP were treated with ROS dye (Abcam, ab186029) following the manufacturer's instructions. […] Cells were incubated at 37° C. with 5% CO2 in a humidified incubator for 30 min. Cells were imaged at 37° C. using the LSM880 Microscope with Airyscan detector with 63×objective and Zen Black software (ZEISS) at the W.M. Keck Microscopy Facility, MIT. Images were then processed using Fiji/ImageJ v2.1.0/153c. Quantification of the ROS dye fluorescence intensity per cell was performed using Fiji. Using the polygon selection tool on Fiji/ImageJ v2.1.0/153c, a polygon was drawn around a cell outline, which was identified by looking at the IR-GFP channel. The average ROS dye fluorescence intensity in the polygon (=in the cell) was determined using the measure tool on Fiji/ImageJ v2.1.0/153c. […] Cells were incubated at 37° C. with 5% CO2 in a humidified incubator for 30 minutes. Cells were imaged at 37° C. using the LSM880 Microscope with Airyscan detector with 63× objective and Zen Black software (ZEISS) at the W.M. Keck Microscopy Facility, MIT. Images were then processed using Fiji/ImageJ v2.1.0/153c. Quantification of the ROS dye fluorescence intensity per cell was performed using Fiji. […] The average ROS dye fluorescence intensity in the polygon (=in the cell) was determined using the measure tool on Fiji/ImageJ v2.1.0/153c."}, "IR condensates": {"tested_on": "IR condensates", "assay": "Immunofluorescence for IR in human liver spheroids (primary human hepatocytes)", "type": "cell-based", "details": "3 nM insulin 10 min", "procedure": "For human liver spheroid experiments, primary human hepatocytes from a donor (BioIVT; lot #SMC) were used. Cells were thawed in Cryopreserved Hepatocyte Recovery Media (CHRM, ThermoFisher), spun down at 100 g for 8 min, and resuspended in seeding medium (William's E with 5.5 mM glucose, 2 mM GlutaMax, 15 mM HEPES, 5% FBS, 1% Pen/Strep, 100 nM hydrocortisone, and insulin 200 pM or 800 pM corresponding to the proper experimental group). Spheroids were formed using custom alginate microwells. In brief, 120,000 cells were seeded per well and spun at 50 g for 2 min to seed microwells, and cultured in a volume of 300 uL seeding medium. After 24 hours, cells were switched to maintenance media for the remainder of the experiment. This maintenance media was composed of William's E plus 6.25 μg/ml transferrin, 6.25 ng/ml selenium, 0.125% fatty acid-free BSA, 20 μM linoleic acid, 5.5 mM glucose, 2 mM GlutaMax, 15 mM HEPES, 0.5% Pen/Strep, and 100 nM hydrocortisone. Insulin was supplemented with concentrations adjusted to mimic healthy and disease-inducing states, either 200 pM for physiological or 800 pM for pathologic insulin levels. Media was exchanged every 48 hours throughout the experiment. […]"}}, "note": "Entries after “also recorded” stand apart in the source; their conditions may differ.", "data": [{"compound": "TNFα", "values": [{"measurement": "production of ROS", "setting": "[1]; HepG2 cells (FIG. 27C), also refs 19,77-79", "result": "excessive production of ROS"}]}, {"compound": "insulin: insulin (Sigma Aldrich, I9278-5ML) used for acute stimulation and chronic physiological or pathological exposure", "values": [{"measurement": "IR signal intensity in cytoplasmic and nuclear condensates/puncta", "setting": "IR condensates; insulin sensitive human liver spheroids", "result": "leads to an increase in IR signal intensity in cytoplasmic and nuclear condensates; also recorded: produced an increase in IR signal intensity in cytoplasmic and nuclear puncta"}]}, {"compound": "CN(C)C(=N)N=C(N)N", "note": "[metformin, reference compound]", "values": [{"measurement": "ROS levels (ROS-sensitive dye)", "setting": "[1]; insulin resistant HepG2 cells, 12.5 μM metformin", "result": "reduced ROS levels to those found in insulin sensitive cells; also recorded: reduced ROS levels to those found in insulin-sensitive cells"}, {"measurement": "IR signal in cytoplasmic and nuclear condensates/puncta", "setting": "IR condensates; insulin resistant human liver spheroids + metformin", "result": "partially rescued"}]}]}
